Measurements: patent US20150344457A1, “METHODS OF INHIBITING PRMT5” (EPIZYME, INC., priority 2012, published 2015)

Target: T1, PRMT5/MEP50 (Homo sapiens, UniProt O14744)
T1 construct: Expressed full-length human Flag-PRMT5/6His-MeP50 protein complex was purified; made in house; host or cells: Spodoptera frugiperda (SF9) insect cells, baculovirus (pDEST8)
Assay: PRMT5 Biochemical Assay (PRMT5/MEP50 enzyme assay on peptide substrate, 3H-SAM Flashplate)
Conditions: Table D-2; read-out: Biochemical IC50

T1 sequence (O14744 with tags, fused parts or gaps): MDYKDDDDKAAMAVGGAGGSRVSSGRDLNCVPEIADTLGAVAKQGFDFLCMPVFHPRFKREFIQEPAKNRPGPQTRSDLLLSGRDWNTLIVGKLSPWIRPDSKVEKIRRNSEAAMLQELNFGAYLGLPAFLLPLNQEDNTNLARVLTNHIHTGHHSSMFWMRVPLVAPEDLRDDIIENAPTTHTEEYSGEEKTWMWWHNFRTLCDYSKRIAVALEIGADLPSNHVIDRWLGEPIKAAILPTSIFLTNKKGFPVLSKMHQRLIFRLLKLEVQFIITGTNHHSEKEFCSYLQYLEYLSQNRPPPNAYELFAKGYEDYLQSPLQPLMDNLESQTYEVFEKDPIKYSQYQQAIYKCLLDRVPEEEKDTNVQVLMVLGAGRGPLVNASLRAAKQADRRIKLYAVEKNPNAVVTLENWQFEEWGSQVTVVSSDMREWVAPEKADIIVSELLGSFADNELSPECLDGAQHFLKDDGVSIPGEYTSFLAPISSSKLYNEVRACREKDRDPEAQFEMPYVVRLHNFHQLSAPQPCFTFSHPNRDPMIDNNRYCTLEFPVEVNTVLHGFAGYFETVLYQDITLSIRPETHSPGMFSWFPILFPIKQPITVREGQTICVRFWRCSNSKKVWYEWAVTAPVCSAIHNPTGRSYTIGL
T1 sequence (Q9BQA1 with tags, fused parts or gaps partner limits assumed): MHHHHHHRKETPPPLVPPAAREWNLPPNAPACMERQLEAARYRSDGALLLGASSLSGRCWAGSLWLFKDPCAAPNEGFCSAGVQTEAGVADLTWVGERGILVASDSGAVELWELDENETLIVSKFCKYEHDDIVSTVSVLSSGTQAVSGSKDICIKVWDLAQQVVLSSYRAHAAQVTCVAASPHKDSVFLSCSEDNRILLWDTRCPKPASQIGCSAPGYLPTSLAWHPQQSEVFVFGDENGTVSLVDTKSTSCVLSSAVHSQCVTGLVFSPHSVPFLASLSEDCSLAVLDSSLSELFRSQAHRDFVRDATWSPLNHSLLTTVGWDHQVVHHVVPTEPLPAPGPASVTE

Compound | IC50
O=C(c1ccc(Cn2nccc2-c2ccc(OCC(O)CN3CCc4ccccc4C3)cc2)cc1)N1CCCC1 (centres unmarked) [Compound D31] | 101 to 1000 nM
COC(COc1cccc(CNC2CCCC2)c1)CN1CCc2ccccc2C1 (centres unmarked) [Compound D32] | 1000 to 10000 nM
OC(CNc1cccc(CNC2CCCC2)c1)CN1CCc2ccccc2C1 (centres unmarked) [Compound D39] | 101 to 1000 nM
OC(COc1cccc(-c2ccccc2)c1)CN1CCc2ccccc2C1 (centres unmarked) [Compound D43] | 101 to 1000 nM
Cn1cnc2ccc(-c3cccc(OCC(O)CN4CCc5ccccc5C4)c3)cc21 (centres unmarked) [Compound D45] | < 100 nM
OC(COc1ccc(C2CCCNC2)cc1)CN1CCc2ccccc2C1 (centres unmarked) [Compound D47] | < 100 nM
CC(Oc1cccc(CNC2CCCC2)c1)C(O)CN1CCc2ccccc2C1 (centres unmarked) [Compound D49] | 101 to 1000 nM
CN(CC(O)CN1CCc2ccccc2C1)c1cccc(CNC2CCCC2)c1 (centres unmarked) [Compound D53] | 101 to 1000 nM
OC(COc1cccc(-c2ccc3cn[nH]c3c2)c1)CN1CCc2ccccc2C1 (centres unmarked) [Compound D58] | 101 to 1000 nM
OC(COc1cccc(-c2ccc3c(c2)OCO3)c1)CN1CCc2ccccc2C1 (centres unmarked) [Compound D59] | 101 to 1000 nM
Cn1cnc2cc(-c3cccc(OCC(O)CN4CCc5ccccc5C4)c3)ccc21 (centres unmarked) [Compound D60] | 101 to 1000 nM
OC(COc1cccc(-c2cc(C(F)(F)F)ccc2Cl)c1)CN1CCc2ccccc2C1 (centres unmarked) [Compound D62] | 101 to 1000 nM
CS(=O)(=O)c1ccc(-c2cccc(OCC(O)CN3CCc4ccccc4C3)c2)cc1 (centres unmarked) [Compound D63] | 101 to 1000 nM
OC(COc1cccc(-c2cccc3cccnc23)c1)CN1CCc2ccccc2C1 (centres unmarked) [Compound D65] | < 100 nM
CC(=O)c1cccc(-c2cccc(OCC(O)CN3CCc4ccccc4C3)c2)c1 (centres unmarked) [Compound D67] | 101 to 1000 nM
OC(COc1cccc(-c2cccc(F)c2F)c1)CN1CCc2ccccc2C1 (centres unmarked) [Compound D68] | 101 to 1000 nM
OCc1cccc(-c2cccc(OCC(O)CN3CCc4ccccc4C3)c2)c1 (centres unmarked) [Compound D72] | 101 to 1000 nM
COc1cccc(-c2cccc(OCC(O)CN3CCc4ccccc4C3)c2)c1 (centres unmarked) [Compound D74] | 101 to 1000 nM
COc1ccc(-c2cccc(OCC(O)CN3CCc4ccccc4C3)c2)cc1 (centres unmarked) [Compound D75] | 101 to 1000 nM
CC1c2ccccc2CCN1CC(O)COc1cccc(-c2ccc3ncn(C)c3c2)c1 (centres unmarked) [Compound D80] | 101 to 1000 nM
CC(C)n1cnc2ccc(-c3cccc(OCC(O)CN4CCc5ccccc5C4)c3)cc21 (centres unmarked) [Compound D81] | 101 to 1000 nM
COc1ccc(Cn2cnc3ccc(-c4cccc(OCC(O)CN5CCc6ccccc6C5)c4)cc32)cc1 (centres unmarked) [Compound D82] | 101 to 1000 nM
OC(COc1cccc(-c2ccc3nc[nH]c3c2)c1)CN1CCc2ccccc2C1 (centres unmarked) [Compound D83] | 101 to 1000 nM
OC(COc1cccc(-c2ccc3nn[nH]c3c2)c1)CN1CCc2ccccc2C1 (centres unmarked) [Compound D84] | 101 to 1000 nM
OC(COc1cccc(-c2ccc3c(c2)OCCO3)c1)CN1CCc2ccccc2C1 (centres unmarked) [Compound D85] | 101 to 1000 nM
OC(COc1cccc(-c2cccc3c2oc2ccccc23)c1)CN1CCc2ccccc2C1 (centres unmarked) [Compound D86] | 101 to 1000 nM
COc1ccc(-c2cccc(OCC(O)CN3CCc4ccccc4C3)c2)c(Cl)c1 (centres unmarked) [Compound D88] | 101 to 1000 nM

Compound | IC50
OC(COc1cccc(-c2cnc3ccccc3c2)c1)CN1CCc2ccccc2C1 (centres unmarked) [Compound D89] | 101 to 1000 nM
COc1ccc(-c2cccc(OCC(O)CN3CCc4ccccc4C3)c2)c(C)c1 (centres unmarked) [Compound D90] | 101 to 1000 nM
OC(COc1cccc(-c2ccccc2Cl)c1)CN1CCc2ccccc2C1 (centres unmarked) [Compound D92] | 101 to 1000 nM
OC(COc1cccc(-c2ccc3ncn(C4CNC4)c3c2)c1)CN1CCc2ccccc2C1 (centres unmarked) [Compound D208] | 101 to 1000 nM
OC(COc1cccc(-c2ccc3ncn(C4CCNC4)c3c2)c1)CN1CCc2ccccc2C1 (centres unmarked) [Compound D209] | < 100 nM
Cn1cc2ccc(-c3cccc(OCC(O)CN4CCc5ccccc5C4)c3)nc2n1 (centres unmarked) [Compound D210] | < 100 nM
Cn1ncc2c1CN(c1cccc(OCC(O)CN3CCc4ccccc4C3)c1)CC2 (centres unmarked) [Compound D216] | 101 to 1000 nM
Cn1cnc2ccc(-c3cc(NCC(O)CN4CCc5ccccc5C4)ccn3)cc21 (centres unmarked) [Compound D217] | 101 to 1000 nM
CN1CC(n2cnc3ccc(-c4cccc(OCC(O)CN5CCc6ccccc6C5)c4)cc32)C1 (centres unmarked) [Compound D218] | < 100 nM
CN1CCC(n2cnc3ccc(-c4cccc(OCC(O)CN5CCc6ccccc6C5)c4)cc32)C1 (centres unmarked) [Compound D219] | < 100 nM
OC(COc1cccc(-c2ccc3ncn(C4CCNCC4)c3c2)c1)CN1CCc2ccccc2C1 (centres unmarked) [Compound D220] | < 100 nM
CN1CCC(n2cnc3ccc(-c4cccc(OCC(O)CN5CCc6ccccc6C5)c4)cc32)CC1 (centres unmarked) [Compound D221] | < 100 nM
O=C(Cn1ccc2cnc(-c3cccc(OCC(O)CN4CCc5ccccc5C4)c3)nc21)N1CCOCC1 (centres unmarked) [Compound D222] | 101 to 1000 nM
OC(COc1cccc(-c2cccc3[nH]cnc23)c1)CN1CCc2ccccc2C1 (centres unmarked) [Compound D223] | < 100 nM
Cn1cc2ccc(-c3cc(NCC(O)CN4CCc5ccccc5C4)ncn3)cc2n1 (centres unmarked) [Compound D224] | 101 to 1000 nM
Cn1ncc2ccc(-c3ccnc(NCC(O)CN4CCc5ccccc5C4)c3)cc21 (centres unmarked) [Compound D226] | < 100 nM
O=C(Cn1ccc2cnc(-c3ccnc(NCC(O)CN4CCc5ccccc5C4)c3)nc21)N1CCCC1 (centres unmarked) [Compound D233] | < 100 nM
O=C(Cn1ccc2cnc(-c3ccnc(NCC(O)CN4CCc5ccccc5C4)c3)nc21)N1CCOCC1 (centres unmarked) [Compound D234] | < 100 nM
OC(CNc1cccc(-c2cccc3[nH]cnc23)c1)CN1CCc2ccccc2C1 (centres unmarked) [Compound D235] | 101 to 1000 nM
Cn1cc2ccc(-c3ccnc(NCC(O)CN4CCc5ccccc5C4)c3)cc2n1 (centres unmarked) [Compound D236] | < 100 nM
Cn1ccc2ccc(-c3cc(NCC(O)CN4CCc5ccccc5C4)ncn3)cc21 (centres unmarked) [Compound D237] | 101 to 1000 nM
Cn1cnc2ccc(-c3ccnc(NCC(O)CN4CCc5ccccc5C4)c3)nc21 (centres unmarked) [Compound D238] | < 100 nM
Cn1ccc2cnc(-c3ccnc(NCC(O)CN4CCc5ccccc5C4)c3)nc21 (centres unmarked) [Compound D239] | < 100 nM
OC(CNc1cc(-c2ccc3ncn(C4CCNC4)c3c2)ccn1)CN1CCc2ccccc2C1 (centres unmarked) [Compound D240] | < 100 nM
OC(CNc1cc(-c2ccc3ncn(C4CCNCC4)c3c2)ccn1)CN1CCc2ccccc2C1 (centres unmarked) [Compound D241] | < 100 nM
CC(=O)N1CCC(n2cnc3ccc(-c4ccnc(NCC(O)CN5CCc6ccccc6C5)c4)cc32)CC1 (centres unmarked) [Compound D242] | 101 to 1000 nM
CC(=O)N1CCC(n2ccc3cnc(-c4cccc(OCC(O)CN5CCc6ccccc6C5)c4)nc32)CC1 (centres unmarked) [Compound D243] | 101 to 1000 nM

Compound | IC50
CN1CCN(C(=O)Cn2ccc3cnc(-c4cccc(OCC(O)CN5CCc6ccccc6C5)c4)nc32)CC1 (centres unmarked) [Compound D244] | 101 to 1000 nM
CNC(=O)Cn1ccc2cnc(-c3ccnc(NCC(O)CN4CCc5ccccc5C4)c3)nc21 (centres unmarked) [Compound D245] | < 100 nM
O=C(Cn1ccc2cnc(-c3ccnc(NCC(O)CN4CCc5ccccc5C4)c3)nc21)N1CCCCC1 (centres unmarked) [Compound D246] | < 100 nM
CN1CCN(C(=O)Cn2ccc3cnc(-c4ccnc(NCC(O)CN5CCc6ccccc6C5)c4)nc32)CC1 (centres unmarked) [Compound D247] | < 100 nM
Cn1ncc2cnc(-c3cccc(OCC(O)CN4CCc5ccccc5C4)c3)cc21 (centres unmarked) [Compound D248] | 101 to 1000 nM
O=C(Cn1cnc2ccc(-c3cccc(OCC(O)CN4CCc5ccccc5C4)c3)cc21)N1CCCCC1 (centres unmarked) [Compound D249] | 101 to 1000 nM
CN1CCC(n2cnc3ccc(-c4ccnc(NCC(O)CN5CCc6ccccc6C5)c4)cc32)C1 (centres unmarked) [Compound D250] | < 100 nM
OC(CNc1cc(-c2ccc3ncn(C4CCOCC4)c3c2)ccn1)CN1CCc2ccccc2C1 (centres unmarked) [Compound D251] | < 100 nM
CN1CCC(n2cnc3ccc(-c4ccnc(NCC(O)CN5CCc6ccccc6C5)c4)cc32)CC1 (centres unmarked) [Compound D252] | < 100 nM
OC(COc1cccc(-c2ncc3ccn(C4CCNCC4)c3n2)c1)CN1CCc2ccccc2C1 (centres unmarked) [Compound D253] | < 100 nM
OC(CNc1cc(-c2ncc3ccn(C4CNC4)c3n2)ccn1)CN1CCc2ccccc2C1 (centres unmarked) [Compound D254] | < 100 nM
OC(CNc1cc(-c2ncc3ccn(C4CCNCC4)c3n2)ccn1)CN1CCc2ccccc2C1 (centres unmarked) [Compound D255] | < 100 nM
CC(=O)N1CCC(n2ccc3cnc(-c4ccnc(NCC(O)CN5CCc6ccccc6C5)c4)nc32)CC1 (centres unmarked) [Compound D256] | < 100 nM
O[C@@H](COc1cccc(-c2cccc3cccnc23)c1)CN1CCc2ccccc2C1 [Compound D257] | < 100 nM
Cn1cc2ccc(-c3cccc(NCC(O)CN4CCc5ccccc5C4)c3)nc2n1 (centres unmarked) [Compound D261] | < 100 nM
CNC(=O)Cn1cnc2ccc(-c3cccc(OCC(O)CN4CCc5ccccc5C4)c3)cc21 (centres unmarked) [Compound D262] | 101 to 1000 nM
O=C(Cn1cnc2ccc(-c3cccc(OCC(O)CN4CCc5ccccc5C4)c3)cc21)N1CCCC1 (centres unmarked) [Compound D263] | 101 to 1000 nM
O=C(Cn1cnc2ccc(-c3cccc(OCC(O)CN4CCc5ccccc5C4)c3)cc21)N1CCOCC1 (centres unmarked) [Compound D264] | 101 to 1000 nM
OC(CNc1cc(-c2ccc3ncn(C4COC4)c3c2)ccn1)CN1CCc2ccccc2C1 (centres unmarked) [Compound D265] | < 100 nM
Cc1ncc2ccc(-c3cccc(OCC(O)CN4CCc5ccccc5C4)c3)cn12 (centres unmarked) [Compound D266] | < 100 nM
OC(COc1cccc(-c2ccc3ncn(C4COC4)c3c2)c1)CN1CCc2ccccc2C1 (centres unmarked) [Compound D269] | < 100 nM
CN1CCN(C(=O)Cn2cnc3ccc(-c4cccc(OCC(O)CN5CCc6ccccc6C5)c4)cc32)CC1 (centres unmarked) [Compound D270] | 101 to 1000 nM
Cn1cnc2ccc(-c3cc(NCC(O)CN4CCc5ccccc5C4)n[nH]3)cc21 (centres unmarked) [Compound D271] | 101 to 1000 nM
Cn1cnc2cc(-c3cc(NCC(O)CN4CCc5ccccc5C4)n[nH]3)ccc21 (centres unmarked) [Compound D272] | 101 to 1000 nM
CC(=O)N(CC(O)CN1CCc2ccccc2C1)c1cccc(-c2ccc3ncn(C)c3c2)c1 (centres unmarked) [Compound D273] | < 100 nM
Cn1cnc2ccc(-c3ccnc(NC[C@H](O)CN4CCc5ccccc5C4)c3)cc21 [Compound D275] | < 100 nM
